This is an account of results in US8263606B2 (Xenon Pharmaceuticals Inc., priority 2008, dated 2012).

One data set relates to sodium channel. The data set can be described thus: Guanidine influx assay (14C-guanidine radiotracer flux, in vitro). It counts as cell-based, human or rat. The note with it: guanidine influx assay using a known cell line that expresses a sodium channel; activity level class. Put shortly:
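Cells (human/rat Nav, endogenous or recombinant), ~100,000/well, 20-24 h 37 °C/5% CO2. Wash LNHBSS (150 mM choline Cl, HEPES, glucose). Add cpd + aconitine/14C-guanidine mix, RT. Wash, dry, scintillation count. IC50: 4-PL fit; selectivity as IC50 ratio vs reference channel, e.g. Nav1.5.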

A further data set has as its target CYP3A4 (Homo sapiens, UniProt P08684). The data set can be described thus: Cytochrome P450 (CYP450) Inhibition Assay, CYP3A4 (Vivid fluorescence, BOMCC substrate). Particulars: human, P450 Baculosomes (recombinant CYP3A4), probe BOMCC (Vivid substrate).

pIC50: −log10 of the molar value.

Chain of CYP3A4 (P08684 whole entry): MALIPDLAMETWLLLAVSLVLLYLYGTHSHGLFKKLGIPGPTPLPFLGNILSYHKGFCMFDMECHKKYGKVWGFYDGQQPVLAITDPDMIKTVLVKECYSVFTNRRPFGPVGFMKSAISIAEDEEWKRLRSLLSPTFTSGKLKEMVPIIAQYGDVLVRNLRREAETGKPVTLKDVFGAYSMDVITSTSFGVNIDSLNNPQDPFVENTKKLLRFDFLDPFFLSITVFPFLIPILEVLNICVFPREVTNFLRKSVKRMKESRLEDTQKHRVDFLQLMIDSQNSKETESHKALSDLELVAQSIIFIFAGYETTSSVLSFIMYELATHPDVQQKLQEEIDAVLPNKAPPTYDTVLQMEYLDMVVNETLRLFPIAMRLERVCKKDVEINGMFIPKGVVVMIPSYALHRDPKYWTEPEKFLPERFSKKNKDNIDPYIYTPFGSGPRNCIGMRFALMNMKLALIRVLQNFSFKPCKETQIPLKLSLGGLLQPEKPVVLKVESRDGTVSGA

Usually pIC50 stands for the IC50 on a negative log10 scale, so that one unit is a factor of ten. What is called melting point is the temperature of the solid-liquid transition. What is called inhibition is the percentage by which the read-out fell short of the control. `O=C1N(Cc2ncccc2F)c2ccccc2C12COc1cc3c(cc12)OCCO3` (stereo not drawn) [Example 4.101, 1-[(3-fluoropyridin-2-yl)methyl]-2,3-dihydrospiro[furo[2,3-g][1,4]benzodioxine-8,3′-indol]-2′(1′H)-one] returned a melting point of 247 to 249 °C. For the same compound, the pIC50 in the data set with sodium channel was 7.00 to 9.00. Also, the inhibition at 10 µM at CYP3A4 is < 50%.
With `O=C1N(Cc2ccccn2)c2cccc(-c3cnc4ccccc4c3)c2C12COc1cc3c(cc12)OCCO3` (stereo not drawn) [Example 4.102, 1-(pyridin-2-ylmethyl)-4′-quinolin-3-yl-2,3-dihydrospiro[furo[2,3-g][1,4]benzodioxine-8,3′-indol]-2′(1′H)-one], the melting point was 228 to 230 °C. The negative-log IC50 (pIC50) with sodium channel was 6.00 to 7.00. Moreover, the inhibition at 10 µM on CYP3A4 is > 50%.
In the case of `O=C1N(Cc2ncc(F)cc2F)c2ccccc2C12COc1cc3c(cc12)OCCO3` (stereo not drawn) [Example 4.104, 1-[(3,5-difluoropyridin-2-yl)methyl]-2,3-dihydrospiro[furo[2,3-g][1,4]benzodioxine-8,3′-indol]-2′(1′H)-one], the melting point is 220 to 222 °C. In the data set with sodium channel, the pIC50 is 7.00 to 9.00. Also, the inhibition at 10 µM at CYP3A4 was < 50%.
In the case of `N#Cc1ccc2c(c1)OCC21C(=O)N(Cc2ccccn2)c2ccccc21` (stereo not drawn) [Example 4.105, 2′-oxo-1′-(pyridin-2-ylmethyl)-1′,2′-dihydrospiro[1-benzofuran-3,3′-indole]-6-carbonitrile], the melting point was in the range of 151 to 153 °C. In the data set on sodium channel, the negative logarithm of the IC50 (pIC50) was 5.00 to 6.00. Further, the inhibition at 10 µM on CYP3A4 was < 50%.
With `N#Cc1cccc(CN2C(=O)[C@@]3(COc4cc5c(cc43)OCCO5)c3ccccc32)c1` [Example 4.106, 3-{[(8S)-2′-oxo-2,3-dihydrospiro[furo[2,3-g][1,4]benzodioxine-8,3′-indol]-1′(2′H)-yl]methyl}benzonitrile], the melting point lay in the range of 94 to 96 °C. Besides, in the data set with sodium channel, the pIC50 was 7.00 to 9.00. At CYP3A4, the inhibition at 10 µM is < 50%.
In the case of `O=C1N(Cc2ccc(F)cn2)c2ccccc2[C@]12COc1cc3c(cc12)OCCO3` [Example 4.107, (8S)-1′-[(5-fluoropyridin-2-yl)methyl]-2,3-dihydrospiro[furo[2,3-g][1,4]benzodioxine-8,3′-indol]-2′(1′H)-one], the melting point is 210 to 212 °C. The pIC50 in the data set with sodium channel is 7.00 to 9.00. Also, the inhibition at 10 µM on CYP3A4 was < 50%.
The like results for `O=C1N(Cc2ncccc2F)c2ccccc2[C@]12COc1cc3c(cc12)OCCO3` [Example 4.108, (8S)-1′-[(3-fluoropyridin-2-yl)methyl]-2,3-dihydrospiro[furo[2,3-g][1,4]benzodioxine-8,3′-indol]-2′(1′H)-one] were, in that order, 125 to 126 °C, 7.00 to 9.00 and < 50%.
Take `O=C1N(Cc2cc(F)ccn2)c2ccccc2C12COc1cc3c(cc12)OCCO3` (stereo not drawn) [Example 4.110, 1-[(4-fluoropyridin-2-yl)methyl]-2,3-dihydrospiro[furo[2,3-g][1,4]benzodioxine-8,3′-indol]-2′(1′H)-one]: the melting point lay within 228 to 231 °C. In the data set with sodium channel, the negative-log IC50 (pIC50) is 7.00 to 9.00. Moreover, the inhibition at 10 µM at CYP3A4 was < 50%.
As to `O=C1N(Cc2ccccc2C(F)(F)F)c2ccccc2C12COc1cc3c(cc12)OCCO3` (stereo not drawn) [Example 4.113, 1′-[2-(trifluoromethyl)benzyl]-2,3-dihydrospiro[furo[2,3-g][1,4]benzodioxine-8,3′-indol]-2′(1′H)-one], the melting point fell in the range of 207 to 208 °C. The negative logarithm of the IC50 (pIC50) in the data set with sodium channel was 7.00 to 9.00. At CYP3A4, the inhibition at 10 µM is < 50%.
`O=C1N(Cc2ccccc2C(F)(F)F)c2ccccc2[C@@]12COc1cc3c(cc12)OCCO3` [Example 4.114, (8R)-1′-[2-(trifluoromethyl)benzyl]-2,3-dihydrospiro[furo[2,3-g][1,4]benzodioxine-8,3′-indol]-2′(1′H)-one]: the melting point fell in the range of 137 to 138 °C. The pIC50 in the data set with sodium channel is 6.00 to 7.00. In addition, on CYP3A4, the inhibition at 10 µM is < 50%.
Take `O=C1N(Cc2ccccc2C(F)(F)F)c2ccccc2[C@]12COc1cc3c(cc12)OCCO3` [Example 4.116, (8S)-1′-[2-(trifluoromethyl)benzyl]-2,3-dihydrospiro[furo[2,3-g][1,4]benzodioxine-8,3′-indol]-2′(1′H)-one]: the melting point fell in the range of 137 to 138 °C. For the same compound, the pIC50 in the data set on sodium channel is 7.00 to 9.00. The inhibition at 10 µM at CYP3A4 was < 50%.
The matching figures for `O=C1N(Cc2ccc3nsnc3c2)c2ccccc2C12COc1cc3c(cc12)OCCO3` (stereo not drawn) [Example 4.118, 1′-(2,1,3-benzothiadiazol-5-ylmethyl)-2,3-dihydrospiro[furo[2,3-g][1,4]benzodioxine-8,3′-indol]-2′(1′H)-one]: 189 to 191 °C, 7.00 to 9.00 and > 50%.
As to `O=C1N(Cc2nc3ccccc3s2)c2ccccc2C12COc1cc3c(cc12)OCCO3` (stereo not drawn) [Example 4.119, 1-(1,3-benzothiazol-2-ylmethyl)-2,3-dihydrospiro[furo[2,3-g][1,4]benzodioxine-8,3′-indol]-2′(1′H)-one], the melting point is 164 to 166 °C. Moreover, the pIC50 with sodium channel is 7.00 to 9.00. In addition, the inhibition at 10 µM on CYP3A4 was > 50%.
For the compound `Cn1c(CN2C(=O)C3(COc4cc5c(cc43)OCCO5)c3ccccc32)nc2ccccc21` (stereo not drawn) [Example 4.120, 1′-[(1-methyl-1H-benzimidazol-2-yl)methyl]-2,3-dihydrospiro[furo[2,3-g][1,4]benzodioxine-8,3′-indol]-2′(1′H)-one], the melting point was > 240 °C. For the same compound, in the data set on sodium channel, the pIC50 was 7.00 to 9.00. For the same compound, the inhibition at 10 µM at CYP3A4 is > 50%.
The like results for `CC(C)c1nc(CN2C(=O)C3(COc4cc5c(cc43)OCCO5)c3ccccc32)cs1` (stereo not drawn) [Example 4.121, 1′-{[2-(1-methylethyl)-1,3-thiazol-4-yl]methyl}-2,3-dihydrospiro[furo[2,3-g][1,4]benzodioxine-8,3′-indol]-2′(1′H)-one] were, in that order, 60 to 63 °C, 7.00 to 9.00 and > 50%.
`O=C1N(Cc2ccc3nonc3c2)c2ccccc2C12COc1cc3c(cc12)OCCO3` (stereo not drawn) [Example 4.122, 1-(2,1,3-benzoxadiazol-5-ylmethyl)-2,3-dihydrospiro[furo[2,3-g][1,4]benzodioxine-8,3′-indol]-2′(1′H)-one]: the melting point was 164 to 166 °C. Also, the negative-log IC50 (pIC50) in the data set with sodium channel was 7.00 to 9.00. Also, the inhibition at 10 µM at CYP3A4 was > 50%.
`O=C1N(Cc2ccccn2)c2ccccc2C12COc1ccc3nonc3c12` (stereo not drawn) [Example 4.124, 1′-(pyridin-2-ylmethyl)spiro[furo[3,2-e][2,1,3]benzoxadiazole-8,3′-indol]-2′(1′H)-one] had a melting point of 180 to 182 °C. In addition, the pIC50 with sodium channel was 7.00 to 9.00. Also, on CYP3A4, the inhibition at 10 µM is < 50%.
In turn, `O=C1N(Cc2cccnc2)c2ccccc2C12COc1ccc3nonc3c12` (stereo not drawn) [Example 4.125, 1-(pyridin-3-ylmethyl)spiro[furo[3,2-e][2,1,3]benzoxadiazole-8,3′-indol]-2′(1′H)-one] registered a melting point of 230 to 232 °C. Moreover, the pIC50 with sodium channel was 5.00 to 6.00. Further, the inhibition at 10 µM at CYP3A4 is < 50%.
The matching figures for `O=C1N(Cc2ccccn2)c2ccccc2C12COc1c(Cl)cc3c(c12)OCCO3` (stereo not drawn) [Example 4.126, 6-chloro-1′-(pyridin-2-ylmethyl)-2,3-dihydrospiro[furo[3,2-f][1,4]benzodioxine-9,3′-indol]-2′(1′H)-one]: 197 to 199 °C, 5.00 to 6.00 and > 50%.
The like results for `O=C1N(C[C@H]2CCCO2)c2ccccc2C12COc1cc3c(cc12)CCCC3` (stereo partly drawn) [Example 4.129, 1-[(2R)-tetrahydrofuran-2-ylmethyl]-5′,6′,7′,8′-tetrahydrospiro[indole-3,3′-naphtho[2,3-b]furan]-2(1′H)-one] were, in that order, 139 to 141 °C, 5.00 to 6.00 and < 50%.
Compound `O=C1N(Cc2ccccn2)c2ccccc2C12COc1cc3nccnc3cc12` (stereo not drawn) [Example 4.130, 1′-(pyridin-2-ylmethyl)spiro[furo[2,3-g]quinoxaline-8,3′-indol]-2′(1′H)-one] had a melting point of 232 to 233 °C. Besides, in the data set on sodium channel, the negative logarithm of the IC50 (pIC50) was 5.00 to 6.00. Moreover, the inhibition at 10 µM on CYP3A4 is < 50%.
The compound `COc1ncc(CN2C(=O)C3(COc4cc5c(cc43)CCO5)c3ccccc32)cn1` (stereo not drawn) [Example 5, 1-[(2-methoxypyrimidin-5-yl)methyl]-5,6-dihydrospiro[benzo[1,2-b:5,4-b′]difuran-3,3′-indol]-2′(1′H)-one] gave a melting point of 203 to 204 °C. For the same compound, the negative logarithm of the IC50 (pIC50) in the data set with sodium channel is 6.00 to 7.00. Besides, the inhibition at 10 µM on CYP3A4 is < 50%.
The matching figures for `CC(C)CCN1C(=O)[C@]2(COc3cc4c(cc32)CCO4)c2ccccc21` [Example 5.2, (3R)-1-(3-methylbutyl)-5,6-dihydrospiro[benzo[1,2-b:5,4-b′]difuran-3,3′-indol]-2′(1′H)-one]: 86 to 87 °C, 5.00 to 6.00 and > 50%.
`CCCCCN1C(=O)[C@]2(COc3cc4c(cc32)CCO4)c2ccccc21` [Example 5.3, (3R)-1′-pentyl-5,6-dihydrospiro[benzo[1,2-b:5,4-b′]difuran-3,3′-indol]-2′(1′H)-one] registered a melting point of 128 to 129 °C. In addition, the pIC50 with sodium channel is 5.00 to 6.00. In addition, the inhibition at 10 µM at CYP3A4 was > 50%.
Consider `Cn1c(=O)oc2cc3c(cc21)OCC31C(=O)N(Cc2ccc(C(F)(F)F)o2)c2ccccc21` (stereo not drawn) [Example 5.8, 3-methyl-1′-{[5-(trifluoromethyl)furan-2-yl]methyl}spiro[furo[2,3-f][1,3]benzoxazole-7,3′-indole]-2,2′(1′H,3H)-dione], for which the melting point was 198 to 199 °C. Besides, in the data set on sodium channel, the pIC50 was 5.00 to 6.00. The inhibition at 10 µM at CYP3A4 was > 50%.
